Source: patent US4701459A, “7-amino-1,3-dihydro-2H-imidazo[4,5-b]quinolin 2-ones and method for inhibiting phosphodiesterase and blood platelet aggregation” (Bristol-Myers Company, priority 1986, dated 1987)
pIC50: −log10 of the molar value. Values after ≈ are worked out from the molar mass of the structure shown. Where two headings read alike, the source gives them in different places.

How the values were obtained:
[1] = test system: cAMP phosphodiesterase (human platelets); test: Inhibition of Cyclic AMP Phosphodiesterase; format: biochemical; conditions: PDE from human platelets
Protocol: Inhibition of Cyclic AMP Phosphodiesterase
This assay is carried out essentially as described by Thompson, et al., Methods in Enzymology, 38, 205-212 (1974). Briefly, tritium labeled cyclic adenosine monophosphate (cAMP) is incubated with a phosphodiesterase (PDE) enzynme obtained from human platelets which converts a portion of the cAMP to 5'AMP in culture tubes. This reaction is terminated by submerging the tubes in a boiling water bath after which they are placed on ice and an aliquot of snake venom is added to each tube. This, during a second incubation, converts the 5'AMP to adenosine. Ion exchange resin is added to bind the remaining cyclic AMP. The tubes are centrifuged to sediment the resin and a portion of the clear supernatent (which contains radioactive adenosine) is counted in a liquid scintillation counter. The cAMP phosphodiesterase inhibition activity of a test agent is determined by pre-incubating the PDE enzyme preparation with the test agent.

[2] = test system: platelet rich plasma (ADP and collagen-induced platelet aggregation); test: In Vitro Inhibition of Platelet Aggregation (aggregometer method of Born, ADP- or collagen-induced); format: cell-based; conditions: Oryctolagus cuniculus, rabbit PRP
Description: In Vitro Inhibition of Platelet Aggregation
The aggregometer method of Born (1), as modified by Mustard, et al. (2) was used to assess the in vitro activity of the various compounds as to inhibition of adenosine diphosphate (ADP) and collagen-induced platelet aggregation. Platelet rich plasma (PRP) was separated by centrifugation from citrated (3.8 percent) rabbit blood. […] The various compounds tested were dissovled in dimethylsulfoxide (DMSO) so that 5 mcl added to the platelet rich plasma would yield the desired test concentration. Vehicle control trials were done and compared with aggregation induced in platelet rich plasma containing various concentrations of the test compounds. Dose response curves were obtained and Effective Concentration (EC50) values calculated.

[3] = test system: ferrets; test: Ferret In Vivo Inotropic Activity; conditions: anesthetized ferrets, monitored 60 minutes; for Maximum Percentage Change, Right Ventricular Contractile Force: percent change from predose control
Protocol: In Vivo Inotropic Activity This test is carried out in ferrets as follows. Fasted anesthetized ferrets are instrumented to study hemodynamic parameters as well as right ventricular contractile force (RVCF) using a Walton-Brodie open strain guage arch. Drugs are administered intraduodenally as solutions in DMSO (1 mL or less) and effects on myocardial contractile force and other parameters are monitored for 60 minutes after dosing. Changes in contractile force in response to drug treatment are expressed in terms of percent change from predose control.

[4] = test system: platelet rich plasma (induced aggregation); test: Inhibition of Platelet Aggregation Following Oral Administration (Ex vivo method); format: in vivo; conditions: Rattus norvegicus, rats, oral (gavage), 2 hours after dosing, vs. ADP
Protocol: Inhibition of Platelet Aggregation Following Oral Administration
This test is sometimes referred to in the art as an Ex vivo method and was initially described by Fleming, et al., Arch. Int. Pharmacodyn. Ther., 199, 164 (1972). Briefly, the assay is essentially carried out as follows.
Aggregometry is performed in vitro as previously described on platelet rich plasma samples obtained from rats dosed with either test compounds or the vehicle. In all cases, activity is determined 2 hours after the drug is administered orally at various doses by gavage as a suspension in […] plus a few drops of Tween 20.

[5] = vs. ADP (0.5 mcg/ml), read-out: Platelet Inhibition In Vitro - Rabbit PRP EC50 vs. ADP
[6] = vs. collagen, read-out: Platelet Inhibition In Vitro - Rabbit PRP EC50 vs. collagen

Compound | pIC50 [1] | EC50 [2, 5] | EC50 [2, 6] | other results
CC(=O)Nc1ccc2nc3[nH]c(=O)[nH]c3cc2c1 [Example 4, N-(2,3-Dihydro-2-oxo-1H-imidazo[4,5-b]quinolin-7-yl)acetamide] | 6.15 | 2 mg/L (≈ 8.26 µM) | 0.8 mg/L (≈ 3.3 µM) | 
Nc1ccc2nc3[nH]c(=O)[nH]c3cc2c1 [Example 5, 7-Amino-1,3-dihydro-2H-imidazo[4,5-b]quinolin-2-one] |  |  | 0.4 mg/L (≈ 2 µM) | 
O=C(Nc1ccc2nc3[nH]c(=O)[nH]c3cc2c1)c1ccccc1 [Example 6, N-(2,3-Dihydro-2-oxo-1H-imidazo[4,5-b]quinolin-7-yl)benzamide] | 6.70 |  |  | Maximum Percentage Change, Blood Pressure ([3]; 3 mg/kg intraduodenal): -8 ± 6%; Maximum Percentage Change, Right Ventricular Contractile Force ([3]; 3 mg/kg intraduodenal): 9 ± 4%; ED50 [4]: 5.6 mg/kg
O=c1[nH]c2cc3cc(N4CCCCC4)ccc3nc2[nH]1 [Example 7, 1,3-Dihydro-7-(1-piperidinyl)-2H-imidazo[4,5-b]quinolin-2-one] |  | 1 mg/L (≈ 3.73 µM) |  | Maximum Percentage Change, Blood Pressure ([3]; 0.3 mg/kg intraduodenal): -21 ± 5%; Maximum Percentage Change, Right Ventricular Contractile Force ([3]; 0.3 mg/kg intraduodenal): 14 ± 12%; Maximum Percentage Change, Blood Pressure ([3]; 3 mg/kg intraduodenal): -39 ± 3%; Maximum Percentage Change, Right Ventricular Contractile Force ([3]; 3 mg/kg intraduodenal): 22 ± 8%; ED50 [4]: 20 mg/kg
O=c1[nH]c2cc3cc(N4CCCC4)ccc3nc2[nH]1 [Example 8, 1,3-Dihydro-7-(1-pyrrolidinyl)-2H-imidazo-[4,5-b]quinolin-2-one] |  |  | 0.4 mg/L (≈ 1.57 µM) | 
CCN(CC)c1ccc2nc3[nH]c(=O)[nH]c3cc2c1 [Example 9, 7-(Diethylamino)-1,3-dihydro-2H-imidazo[4,5-b]quinolin-2-one] |  | 0.3 mg/L (≈ 1.17 µM) |  | 
O=c1[nH]c2cc3cc(N4CCOCC4)ccc3nc2[nH]1 [Example 10, 1,3-Dihydro-7-(4-morpholinyl)-2H-imidazo[4,5-b]quinolin-2-one] | 7.70 | 0.03 mg/L (≈ 0.111 µM) | 0.02 mg/L (≈ 0.074 µM) | 
COC(=O)C1CCN(c2ccc3nc4[nH]c(=O)[nH]c4cc3c2)CC1 [Example 11, Methyl 1-(2,3-Dihydro-2-oxo-1H-imidazo[4,5-b]quinolin-7-yl)-4-piperidinecarboxylate] |  | 0.04 mg/L (≈ 0.123 µM) | 0.012 mg/L (≈ 0.0368 µM) | 
O=C(O)C1CCN(c2ccc3nc4[nH]c(=O)[nH]c4cc3c2)CC1 [Example 12, 1-(2,3-Dihydro-2-oxo-1H-imidazo[4,5-b]quinolin-7-yl)-4-piperidinecarboxylicAcid] | 7.70 | 3.5 mg/L (≈ 11.2 µM) | 3 mg/L (≈ 9.61 µM) | 
CCOC(=O)N1CCN(c2ccc3nc4[nH]c(=O)[nH]c4cc3c2)CC1 [Example 13, Ethyl 4-(2,3-Dihydro-2-oxo-1H-imidazo[4,5-b]quinolin-7-yl)-1-piperazinecarboxylate] | 6.15 |  | 0.17 mg/L (≈ 0.498 µM) | 
O=C(c1ccccc1)N1CCN(c2ccc3nc4[nH]c(=O)[nH]c4cc3c2)CC1 [Example 14, 1-Benzoyl-4-(2,3-dihydro-2-oxo-1H-imidazo[4,5-b]quinolin-7-yl)piperazine] | 6.22 | 0.125 mg/L (≈ 0.335 µM) |  | 
COc1ccc(C(=O)N2CCN(c3ccc4nc5[nH]c(=O)[nH]c5cc4c3)CC2)cc1OC [Example 15, 1-(2,3-Dihydro-2-oxo-1H-imidazo[4,5-b]quinolin-7-yl)-4-(3,4-dimethoxybenzoyl)piperazine] |  | 3 mg/L (≈ 6.92 µM) | 2 mg/L (≈ 4.61 µM) | 
O=c1[nH]c2cc3cc(N4CCN(c5ccccc5)CC4)ccc3nc2[nH]1 [Example 16, 1,3-Dihydro-7-(4-phenyl-1-piperazinyl)-2H-imidazo[4,5-b]quinolin-2-one] |  | 0.12 mg/L (≈ 0.347 µM) | 0.025 mg/L (≈ 0.0724 µM) | 
CN(C(=O)C1CCN(c2ccc3nc4[nH]c(=O)[nH]c4cc3c2)CC1)C1CCCCC1 [Example 17, N-Cyclohexyl-1-(2,3-dihydro-2-oxo-1H-imidazo[4,5-b]quinolin-7-yl)-N-methyl-4-piperidinecarboxamide] |  | 1.5 mg/L (≈ 3.68 µM) | 0.75 mg/L (≈ 1.84 µM) | 
OCCN(CCO)c1nc(N2CCCCC2)c2nc(N(CCO)CCO)nc(N3CCCCC3)c2n1 [dipyridamole, reference compound] |  | […] | […] | ED50 [4]: > 100 mg/kg
Cc1[nH]c(=O)c(C#N)cc1-c1ccncc1 [milrinone, reference compound] |  |  |  | Maximum Percentage Change, Right Ventricular Contractile Force ([3]; 3 mg/kg intraduodenal): 52%
